For the assay, the system named is ProcM. As to the kind of experiment: ProcM reactions with other. It counts as biochemical, Prochlorococcus MIT9313. The following applies: preliminary; data not shown.

With “ProcA4.3: ProcA substrate (TASGGCDTSMFCY; UniProt Q7V735 65-77, looked up)”, the cyclization kinetics entry is given as “some thioether rings form quickly, while others require a much longer time”.

The record behind these values is PMC4277782 (Journal of the American Chemical Society, 2014).
